From ChEMBL document CHEMBL1152261, “2-Aminobenzimidazoles as potent ITK antagonists: trans-stilbene-like moieties targeting the kinase specificity pocket” (Bioorg Med Chem Lett, 2008)

What was measured:
[1] = biological target: Insulin receptor (Homo sapiens, UniProt P06213); assay: Inhibition of IRK by DELPHIA
[2] = biological target: T1, Tyrosine-protein kinase ITK/TSK (Homo sapiens, UniProt Q08881); assay: Inhibition of ITK by DELPHIA
T1 sequence (Q08881 whole entry): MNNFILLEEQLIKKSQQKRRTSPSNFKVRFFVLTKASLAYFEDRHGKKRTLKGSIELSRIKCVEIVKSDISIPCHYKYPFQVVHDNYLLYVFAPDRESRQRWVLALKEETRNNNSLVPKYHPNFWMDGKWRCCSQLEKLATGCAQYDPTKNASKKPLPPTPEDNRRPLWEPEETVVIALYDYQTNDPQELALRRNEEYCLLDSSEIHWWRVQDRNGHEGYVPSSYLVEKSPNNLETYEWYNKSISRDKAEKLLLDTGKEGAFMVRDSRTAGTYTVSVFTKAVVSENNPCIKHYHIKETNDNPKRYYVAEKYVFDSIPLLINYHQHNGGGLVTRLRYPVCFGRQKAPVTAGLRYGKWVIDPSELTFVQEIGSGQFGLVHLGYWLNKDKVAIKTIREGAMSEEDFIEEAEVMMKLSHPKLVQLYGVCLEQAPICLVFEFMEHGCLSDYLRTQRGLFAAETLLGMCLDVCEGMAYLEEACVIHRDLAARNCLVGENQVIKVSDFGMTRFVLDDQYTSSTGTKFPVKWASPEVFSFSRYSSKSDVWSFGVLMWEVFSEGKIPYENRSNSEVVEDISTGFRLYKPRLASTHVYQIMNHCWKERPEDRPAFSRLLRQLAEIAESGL

[3] = test system: T-cell; assay: Inhibition of anti-CD3/anti-CD28-stimulated IL2 production in human CD4+ T cells
[4] = biological target: T1, Tyrosine-protein kinase ITK/TSK; assay: Antagonist activity at ITK expressed in chicken DT40 B cells assessed as inhibition of calcium flux; assay type: functional, cell-based
[5] = biological target: Tyrosine-protein kinase BTK (Homo sapiens, UniProt Q06187); assay: Inhibition of BTK
Chain of Tyrosine-protein kinase BTK (Q06187 whole entry): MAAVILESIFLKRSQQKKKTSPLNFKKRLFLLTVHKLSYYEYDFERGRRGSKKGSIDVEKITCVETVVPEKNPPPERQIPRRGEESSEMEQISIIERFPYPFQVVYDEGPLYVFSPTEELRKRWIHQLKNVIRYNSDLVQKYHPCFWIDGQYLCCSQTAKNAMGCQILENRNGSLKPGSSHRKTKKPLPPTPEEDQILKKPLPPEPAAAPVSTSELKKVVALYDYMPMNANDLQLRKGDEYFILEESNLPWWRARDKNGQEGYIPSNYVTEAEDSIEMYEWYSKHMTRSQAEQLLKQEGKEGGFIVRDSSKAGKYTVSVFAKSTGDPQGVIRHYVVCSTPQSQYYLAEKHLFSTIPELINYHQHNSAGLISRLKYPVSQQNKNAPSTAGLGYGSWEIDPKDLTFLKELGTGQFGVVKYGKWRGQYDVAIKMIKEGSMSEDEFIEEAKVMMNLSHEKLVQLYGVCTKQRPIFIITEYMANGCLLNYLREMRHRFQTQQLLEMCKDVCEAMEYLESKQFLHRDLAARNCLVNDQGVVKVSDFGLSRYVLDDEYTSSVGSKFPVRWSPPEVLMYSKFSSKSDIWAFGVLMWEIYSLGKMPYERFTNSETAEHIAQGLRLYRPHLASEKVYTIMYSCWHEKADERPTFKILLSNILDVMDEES

[6] = biological target: T2, Tyrosine-protein kinase TXK (Homo sapiens, UniProt P42681); assay: Inhibition of TXK
T2 sequence (P42681 whole entry): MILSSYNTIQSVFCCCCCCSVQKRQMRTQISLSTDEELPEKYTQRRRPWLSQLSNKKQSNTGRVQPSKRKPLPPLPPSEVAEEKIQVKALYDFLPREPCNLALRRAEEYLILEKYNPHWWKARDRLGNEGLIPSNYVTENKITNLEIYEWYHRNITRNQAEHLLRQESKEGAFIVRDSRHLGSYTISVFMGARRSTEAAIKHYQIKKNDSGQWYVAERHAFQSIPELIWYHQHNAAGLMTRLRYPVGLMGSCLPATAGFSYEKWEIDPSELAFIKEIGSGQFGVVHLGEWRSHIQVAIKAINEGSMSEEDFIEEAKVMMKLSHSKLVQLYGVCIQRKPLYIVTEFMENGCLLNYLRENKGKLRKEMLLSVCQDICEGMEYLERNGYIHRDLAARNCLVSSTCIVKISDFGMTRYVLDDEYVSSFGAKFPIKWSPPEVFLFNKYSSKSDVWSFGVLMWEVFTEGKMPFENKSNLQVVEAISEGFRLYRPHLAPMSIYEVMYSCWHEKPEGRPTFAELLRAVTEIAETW

Chain of Insulin receptor (P06213 28-758 limits assumed): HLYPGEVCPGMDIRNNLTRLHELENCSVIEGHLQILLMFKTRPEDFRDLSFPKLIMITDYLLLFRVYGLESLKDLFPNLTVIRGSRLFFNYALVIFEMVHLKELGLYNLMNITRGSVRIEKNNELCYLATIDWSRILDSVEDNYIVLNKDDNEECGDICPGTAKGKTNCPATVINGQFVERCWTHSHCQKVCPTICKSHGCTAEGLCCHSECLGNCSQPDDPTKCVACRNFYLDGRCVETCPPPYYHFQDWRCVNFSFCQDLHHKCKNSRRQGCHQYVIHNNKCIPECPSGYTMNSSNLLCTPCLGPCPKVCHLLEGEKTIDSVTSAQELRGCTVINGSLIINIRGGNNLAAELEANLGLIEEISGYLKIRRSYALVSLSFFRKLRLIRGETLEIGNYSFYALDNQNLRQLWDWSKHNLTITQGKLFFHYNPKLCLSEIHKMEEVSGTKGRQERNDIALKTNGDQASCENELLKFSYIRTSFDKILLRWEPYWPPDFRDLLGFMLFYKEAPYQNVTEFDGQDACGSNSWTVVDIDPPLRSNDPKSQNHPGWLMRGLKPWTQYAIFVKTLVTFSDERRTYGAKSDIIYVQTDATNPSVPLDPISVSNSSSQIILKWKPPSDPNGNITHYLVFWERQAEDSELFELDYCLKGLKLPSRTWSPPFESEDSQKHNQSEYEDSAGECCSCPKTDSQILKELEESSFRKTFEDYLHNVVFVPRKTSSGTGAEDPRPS
Chain of Insulin receptor (P06213 763-1382 limits assumed): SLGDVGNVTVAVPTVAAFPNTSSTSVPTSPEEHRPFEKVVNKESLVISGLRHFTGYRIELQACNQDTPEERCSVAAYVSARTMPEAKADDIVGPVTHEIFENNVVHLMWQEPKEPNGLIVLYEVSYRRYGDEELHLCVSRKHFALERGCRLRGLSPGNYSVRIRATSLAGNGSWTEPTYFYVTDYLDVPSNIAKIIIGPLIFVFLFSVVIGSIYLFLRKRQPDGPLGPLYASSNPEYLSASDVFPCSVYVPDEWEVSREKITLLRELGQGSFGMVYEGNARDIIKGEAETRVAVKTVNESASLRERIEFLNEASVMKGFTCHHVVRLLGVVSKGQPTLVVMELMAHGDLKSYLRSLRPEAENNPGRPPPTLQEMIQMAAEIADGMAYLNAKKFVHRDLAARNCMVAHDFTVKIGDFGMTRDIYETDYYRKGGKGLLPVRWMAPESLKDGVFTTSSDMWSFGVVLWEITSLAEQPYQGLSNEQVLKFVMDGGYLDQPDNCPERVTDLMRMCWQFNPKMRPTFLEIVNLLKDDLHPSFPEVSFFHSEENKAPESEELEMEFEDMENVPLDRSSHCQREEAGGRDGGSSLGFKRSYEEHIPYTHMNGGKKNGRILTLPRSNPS

Row | IC50 [1] [nM] | Compound | also measured
1 | 4500 | C/C(=C\C#N)c1ccc(C(=O)/N=c2\[nH]c3cc(N(C)C(=O)c4ccccc4)ccc3n2CCC(N)=O)s1 | 
2 | > 5000 | CN(C(=O)c1ccccc1)c1ccc2c(c1)[nH]/c(=N\C(=O)c1ccc(/C=C/c3ccccc3C(F)(F)F)s1)n2CCC(N)=O | 
3 | 4300 | CN(C(=O)c1ccccc1)c1ccc2c(c1)[nH]/c(=N\C(=O)c1ccc(/C=C/c3cccc([N+](=O)[O-])c3)s1)n2CCC(N)=O | 
4 | 1500 | CN(C(=O)c1ccccc1)c1ccc2c(c1)[nH]/c(=N\C(=O)c1ccc(/C=C/c3ncc(N)cn3)s1)n2CCC(N)=O | IC50 [2]: 5 nM; IC50 [3]: 1600 nM; IC50 [4]: 410 nM; IC50 [5]: 5 nM; IC50 [6]: 700 nM
5 | > 5000 | COc1cccc(/C=C/c2ccc(C(=O)Nc3nc4cc(N(C)C(=O)c5ccccc5)ccc4n3CCC(N)=O)s2)c1 | 
6 | > 5000 | COc1ccc(/C=C/c2ccc(C(=O)/N=c3\[nH]c4cc(N(C)C(=O)c5ccccc5)ccc4n3CCC(N)=O)s2)cc1 | 
7 | 970 | CN(C(=O)c1ccccc1)c1ccc2c(c1)[nH]/c(=N\C(=O)c1ccc(/C=C/c3ccccc3)s1)n2CCC(N)=O | 
8 | > 5000 | CN(C(=O)c1ccccc1)c1ccc2c(c1)[nH]/c(=N\C(=O)c1ccc(/C=C/n3ccnc3)s1)n2CCC(N)=O | IC50 [2]: 12 nM; IC50 [4]: 2200 nM
9 | > 5000 | C/C(=C\c1ccccc1)c1ccc(C(=O)Nc2nc3cc(N(C)C(=O)c4ccccc4)ccc3n2CCC(N)=O)s1 | 
10 | > 5000 | CN(C(=O)c1ccccc1)c1ccc2c(c1)nc(NC(=O)c1ccc(/C=C/c3cccc(C(F)(F)F)c3)s1)n2CCC(N)=O | 
11 | 3800 | CN(C(=O)c1ccccc1)c1ccc2c(c1)[nH]/c(=N\C(=O)c1ccc(/C=C/c3cccc(N)n3)s1)n2CCC(N)=O | IC50 [2]: 7 nM; IC50 [4]: 2000 nM
12 | > 5000 | C=C(C)c1ccc(C(=O)/N=c2\[nH]c3cc(N(C)C(=O)c4ccccc4)ccc3n2CCC(N)=O)s1 | 
13 | > 5000 | COc1ccccc1/C=C/c1ccc(C(=O)/N=c2\[nH]c3cc(N(C)C(=O)c4ccccc4)ccc3n2CCC(N)=O)s1 | 
14 | > 5000 | CN(C(=O)c1ccccc1)c1ccc2c(c1)[nH]/c(=N\C(=O)c1ccc(/C=C/c3ccc(C(F)(F)F)cc3)s1)n2CCC(N)=O | 
15 |  | CN(C(=O)c1ccccc1)c1ccc2c(c1)nc(NC(=O)c1cccs1)n2CCC(N)=O | IC50 [3]: > 5000 nM
16 | 480 | C=Cc1ccc(C(=O)Nc2nc3cc(N(C)C(=O)c4ccccc4)ccc3n2CCC(N)=O)s1 | 
17 | 3300 | CN(C(=O)c1ccccc1)c1ccc2c(c1)nc(NC(=O)c1ccc(/C=C/c3ccc(N)cc3)s1)n2CCC(N)=O | 
18 | 3600 | COC(=O)/C=C(\C)c1ccc(C(=O)/N=c2\[nH]c3cc(N(C)C(=O)c4ccccc4)ccc3n2CCC(N)=O)s1 | 
19 | 4900 | CN(C(=O)c1ccccc1)c1ccc2c(c1)[nH]/c(=N\C(=O)c1ccc(/C=C/c3cccc(N)c3)s1)n2CCC(N)=O | 
20 |  | CN(C(=O)c1ccccc1)c1ccc2c(c1)[nH]/c(=N\C(=O)c1ccc(/C=C/c3cn[nH]c3)s1)n2CCC(N)=O | IC50 [3]: 3000 nM
21 | 2200 | CN(C(=O)c1ccccc1)c1ccc2c(c1)[nH]/c(=N\C(=O)c1ccc(/C=C/c3ccc(O)cc3)s1)n2CCC(N)=O | 
22 | 1950 | CN(C(=O)c1ccccc1)c1ccc2c(c1)[nH]/c(=N\C(=O)c1ccc(/C=C/c3ccccc3N)s1)n2CCC(N)=O | 

Row | Compound | IC50 [1] [nM] | also measured
23 | CN(C(=O)c1ccccc1)c1ccc2c(c1)[nH]/c(=N\C(=O)c1ccc(/C=C/c3cccnc3)s1)n2CCC(N)=O | > 5000 | 
24 | CN(C(=O)c1ccccc1)c1ccc2c(c1)[nH]/c(=N\C(=O)c1ccc(/C=C/c3ccncc3)s1)n2CCC(N)=O | > 5000 | 
25 | C/C(=C\c1ccncc1)c1ccc(C(=O)/N=c2\[nH]c3cc(N(C)C(=O)c4ccccc4)ccc3n2CCC(N)=O)s1 | > 5000 | 
26 | C/C(=C\c1cccnc1)c1ccc(C(=O)/N=c2\[nH]c3cc(N(C)C(=O)c4ccccc4)ccc3n2CCC(N)=O)s1 | > 5000 | 
27 | CN(C(=O)c1ccccc1)c1ccc2c(c1)[nH]/c(=N\C(=O)c1ccc(/C=C/c3cnccn3)s1)n2CCC(N)=O | > 5000 | IC50 [2]: 8 nM; IC50 [4]: 810 nM
28 | COC(=O)/C=C/c1ccc(C(=O)/N=c2\[nH]c3cc(N(C)C(=O)c4ccccc4)ccc3n2CCC(N)=O)s1 | > 5000 | 
